Experimental data as given in ChEMBL document CHEMBL1128053, “Inhibition of matrix metalloproteinases by N-carboxyalkyl dipeptides: Enhanced potency and selectivity with substituted P1 homophenylalanines” (Bioorg Med Chem Lett, 1995).
pKi: −log10 of the molar value.

Experiments:
[1] = molecular target: T1, Interstitial collagenase (Homo sapiens, UniProt P03956)
T1 sequence (P03956 whole entry): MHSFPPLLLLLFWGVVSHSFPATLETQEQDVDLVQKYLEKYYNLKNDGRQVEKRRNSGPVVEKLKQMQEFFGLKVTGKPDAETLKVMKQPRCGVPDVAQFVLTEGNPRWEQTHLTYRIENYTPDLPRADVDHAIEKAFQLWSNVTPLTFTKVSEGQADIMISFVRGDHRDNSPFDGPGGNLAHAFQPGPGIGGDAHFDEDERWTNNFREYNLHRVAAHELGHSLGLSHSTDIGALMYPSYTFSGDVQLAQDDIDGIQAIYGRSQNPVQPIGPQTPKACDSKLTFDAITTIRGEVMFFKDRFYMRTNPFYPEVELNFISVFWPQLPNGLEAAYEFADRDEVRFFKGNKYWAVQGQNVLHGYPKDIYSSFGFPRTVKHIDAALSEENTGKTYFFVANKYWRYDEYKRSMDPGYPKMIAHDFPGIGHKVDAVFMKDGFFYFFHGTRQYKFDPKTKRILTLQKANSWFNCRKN

[2] = molecular target: 72 kDa type IV collagenase (Homo sapiens, UniProt P08253)
Chain of 72 kDa type IV collagenase (P08253 whole entry): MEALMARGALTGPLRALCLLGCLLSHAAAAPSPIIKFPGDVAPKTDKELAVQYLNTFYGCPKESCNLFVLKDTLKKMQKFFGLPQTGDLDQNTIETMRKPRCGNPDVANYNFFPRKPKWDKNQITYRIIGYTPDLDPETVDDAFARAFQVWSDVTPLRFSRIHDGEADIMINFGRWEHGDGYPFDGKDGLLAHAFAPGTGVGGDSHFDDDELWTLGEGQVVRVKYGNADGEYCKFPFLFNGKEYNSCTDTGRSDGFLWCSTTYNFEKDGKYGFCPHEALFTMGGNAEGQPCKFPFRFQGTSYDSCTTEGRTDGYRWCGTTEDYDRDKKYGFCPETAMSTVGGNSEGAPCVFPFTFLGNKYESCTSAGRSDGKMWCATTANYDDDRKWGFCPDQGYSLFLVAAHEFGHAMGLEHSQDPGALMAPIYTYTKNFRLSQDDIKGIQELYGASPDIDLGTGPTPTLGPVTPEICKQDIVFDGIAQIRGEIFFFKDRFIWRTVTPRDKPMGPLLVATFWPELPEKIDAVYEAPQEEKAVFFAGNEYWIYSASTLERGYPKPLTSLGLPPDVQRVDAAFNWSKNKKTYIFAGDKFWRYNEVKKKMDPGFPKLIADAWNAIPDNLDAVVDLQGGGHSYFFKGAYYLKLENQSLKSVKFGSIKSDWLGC

| pKi [1] | pKi [2] | Structure (SMILES) |
| --- | --- | --- |
| 5.23 | 8.46 | CCCc1ccc(CC[C@H](N[C@H](C)C(=O)O)C(=O)N[C@@H](CC(C)C)C(=O)Nc2ccccc2)cc1 |
| < 5.00 | 8.68 | CCCCc1ccc(CC[C@H](N[C@H](C)C(=O)O)C(=O)N[C@@H](CCCNC(=N)N)C(=O)Nc2ccccc2)cc1 |
| 6.33 | 6.68 | C[C@@H](N[C@@H](CCc1ccccc1)C(=O)N[C@@H](CCCNC(=N)N)C(=O)Nc1ccccc1)C(=O)O |
| 5.64 | 7.92 | CCc1ccc(CC[C@H](N[C@H](C)C(=O)O)C(=O)N[C@@H](CC(C)C)C(=O)Nc2ccccc2)cc1 |
| 5.57 |  | CC(C)C[C@H](NC(=O)[C@H](CCc1ccccc1O)N[C@H](C)C(=O)O)C(=O)Nc1ccccc1 |
| 6.00 |  | CC(C)C[C@H](NC(=O)[C@H](CCc1ccc(O)cc1)N[C@H](C)C(=O)O)C(=O)Nc1ccccc1 |
| 5.68 | 7.11 | CC(C)C[C@H](NC(=O)[C@H](CCc1ccc(Cl)cc1)N[C@H](C)C(=O)O)C(=O)Nc1ccccc1 |
| < 5.00 | 7.96 | CC(C)Cc1ccc(CC[C@H](N[C@H](C)C(=O)O)C(=O)N[C@@H](CC(C)C)C(=O)Nc2ccccc2)cc1 |
| 5.64 | 8.21 | CCOc1ccc(CC[C@H](N[C@H](C)C(=O)O)C(=O)N[C@@H](CCCNC(=N)N)C(=O)Nc2ccccc2)cc1 |
| < 5.00 |  | COc1ccccc1CC[C@H](N[C@H](C)C(=O)O)C(=O)N[C@@H](CC(C)C)C(=O)Nc1ccccc1 |
| 5.11 | 7.60 | Cc1ccc(CC[C@H](N[C@H](C)C(=O)O)C(=O)N[C@@H](CC(C)C)C(=O)Nc2ccccc2)cc1C |
| < 5.00 | 5.32 | Cc1cc(C)cc(CC[C@H](N[C@H](C)C(=O)O)C(=O)N[C@@H](CC(C)C)C(=O)Nc2ccccc2)c1 |
| < 5.00 | < 5.00 | COc1ccc(CC[C@H](N[C@H](C)C(=O)O)C(=O)N[C@@H](CC(C)C)C(=O)Nc2ccccc2)cc1OC |
| < 5.00 |  | COc1cccc(CC[C@H](N[C@H](C)C(=O)O)C(=O)N[C@@H](CC(C)C)C(=O)Nc2ccccc2)c1 |
| < 5.00 | 6.89 | CC(C)C[C@H](NC(=O)[C@H](CCc1ccc(C(C)C)cc1)N[C@H](C)C(=O)O)C(=O)Nc1ccccc1 |
| 6.06 | 6.66 | CC(C)C[C@H](NC(=O)[C@H](CCc1ccc(F)cc1)N[C@H](C)C(=O)O)C(=O)Nc1ccccc1 |
| 5.72 |  | Cc1ccc(CC[C@H](N[C@H](C)C(=O)O)C(=O)N[C@@H](CC(C)C)C(=O)Nc2ccccc2)cc1 |
| 5.82 |  | Cc1cccc(CC[C@H](N[C@H](C)C(=O)O)C(=O)N[C@@H](CC(C)C)C(=O)Nc2ccccc2)c1 |
| < 5.00 |  | Cc1ccccc1CC[C@H](N[C@H](C)C(=O)O)C(=O)N[C@@H](CC(C)C)C(=O)Nc1ccccc1 |
| 5.29 | 6.96 | CC(C)C[C@H](NC(=O)[C@H](CCc1ccc(C(F)(F)F)cc1)N[C@H](C)C(=O)O)C(=O)Nc1ccccc1 |
| < 5.00 | 5.21 | CC(C)Cc1cccc(CC[C@H](N[C@H](C)C(=O)O)C(=O)N[C@@H](CC(C)C)C(=O)Nc2ccccc2)c1 |
| 5.48 |  | CC(C)C[C@H](NC(=O)[C@H](CCc1cccc(Cl)c1)N[C@H](C)C(=O)O)C(=O)Nc1ccccc1 |
| 6.29 |  | CC(C)C[C@H](NC(=O)[C@H](CCc1cccc(O)c1)N[C@H](C)C(=O)O)C(=O)Nc1ccccc1 |
| 5.54 | 8.52 | CCCc1ccc(CC[C@H](N[C@H](C)C(=O)O)C(=O)N[C@@H](CCCN=C(N)N)C(=O)Nc2ccccc2)cc1 |
